Reference: publication PMC3914206

Molecular target: T1, panel of 442 kinases (Homo sapiens, UniProt Q99683)
T1 construct: purchased KINOMEscan
T1 sequence (Q99683 1-1374): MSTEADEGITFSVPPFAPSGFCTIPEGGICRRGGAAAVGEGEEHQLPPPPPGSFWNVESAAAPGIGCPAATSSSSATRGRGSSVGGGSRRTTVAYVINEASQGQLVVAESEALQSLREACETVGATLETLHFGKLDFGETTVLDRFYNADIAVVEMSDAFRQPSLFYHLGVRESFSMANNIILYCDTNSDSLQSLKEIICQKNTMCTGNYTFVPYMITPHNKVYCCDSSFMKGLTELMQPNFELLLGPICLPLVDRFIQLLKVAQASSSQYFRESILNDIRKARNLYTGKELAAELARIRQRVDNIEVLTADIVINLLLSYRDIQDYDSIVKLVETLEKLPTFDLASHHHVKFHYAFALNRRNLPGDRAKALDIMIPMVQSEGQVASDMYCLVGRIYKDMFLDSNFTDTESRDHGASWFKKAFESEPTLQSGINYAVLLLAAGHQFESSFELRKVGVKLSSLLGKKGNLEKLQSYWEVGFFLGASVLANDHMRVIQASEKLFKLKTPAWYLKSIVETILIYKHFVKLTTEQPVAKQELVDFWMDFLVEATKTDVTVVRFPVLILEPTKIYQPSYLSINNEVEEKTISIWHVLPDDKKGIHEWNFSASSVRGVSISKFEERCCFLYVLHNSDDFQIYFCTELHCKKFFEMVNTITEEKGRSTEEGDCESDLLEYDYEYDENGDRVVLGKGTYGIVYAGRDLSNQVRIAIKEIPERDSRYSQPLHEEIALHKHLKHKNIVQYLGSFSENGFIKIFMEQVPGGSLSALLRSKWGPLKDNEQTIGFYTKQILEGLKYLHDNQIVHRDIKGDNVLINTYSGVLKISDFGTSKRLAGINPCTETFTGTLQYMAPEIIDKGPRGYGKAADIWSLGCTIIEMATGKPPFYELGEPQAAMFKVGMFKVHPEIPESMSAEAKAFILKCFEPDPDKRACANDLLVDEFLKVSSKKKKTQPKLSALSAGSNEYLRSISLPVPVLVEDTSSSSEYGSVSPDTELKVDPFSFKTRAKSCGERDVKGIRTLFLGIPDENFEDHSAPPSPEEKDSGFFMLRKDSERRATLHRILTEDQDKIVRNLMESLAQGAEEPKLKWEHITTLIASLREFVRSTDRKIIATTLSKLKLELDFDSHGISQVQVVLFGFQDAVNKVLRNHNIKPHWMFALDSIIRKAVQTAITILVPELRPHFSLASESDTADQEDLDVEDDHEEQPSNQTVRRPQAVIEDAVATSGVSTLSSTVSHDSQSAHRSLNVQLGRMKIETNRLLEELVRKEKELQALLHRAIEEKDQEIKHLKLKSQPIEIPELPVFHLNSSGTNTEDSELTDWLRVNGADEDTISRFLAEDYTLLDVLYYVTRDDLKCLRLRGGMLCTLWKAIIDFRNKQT
Type: binding
Conditions: Compound Concentration 10 µM
From the text: We assessed the selectivity of members of this scaffold using the KINOMEscan methodology across a near comprehensive panel of 442 kinases [[18,27]].

Row | SMILES | KINOMEscan: ASK1
1 | CCOc1cc(C(=O)N2CCC(N3CCN(C)CC3)CC2)ccc1Nc1ncc2c(n1)N(C1CCCC1)c1ccccc1C(=O)N2C [Compound 26] | 100
2 | COc1cc(C(=O)N2CCC(N3CCN(C)CC3)CC2)ccc1Nc1ncc2c(n1)N(C1CCCC1)c1ccccc1C(=O)N2C [Compound 25, 11-cyclopentyl-2-((2-methoxy-4-(4-(4-methylpiperazin-1-yl)piperidine-1-carbonyl)phenyl)amino)-5-methyl-5H-benzo[e]pyrimido[5,4-b][1,4]diazepin-6(11H)-one] | 100
3 | COc1cc(C(=O)N2CCC(N3CCN(C)CC3)CC2)ccc1Nc1ncc2c(n1)N(C)c1ccccc1C(=O)N2C [15 (LRRK2-IN-1)] | 100
